# Experimental data: ChEMBL document CHEMBL5331101, “Synthesis and evaluation of N-sulfonylpiperidine-3-carboxamide derivatives as capsid assembly modulators inhibiting HBV in vitro and in HBV-transgenic mice” (Eur J Med Chem, 2023)
# Activity calls are given as the source filed them. The calls are words filed in the database; no cut-off is given here.
# How the values were obtained:
# [1] = system: Hepatitis B virus; experiment: Antiviral activity against HBV infected in human HePAD38 assessed as reduction on HBeAg level at 20 uM by ELISA analysis relative to control; format: functional; parameters: scale not given: the % may be the effect or the level left
# [2] = Selectivity index, ratio of CC50 for cytotoxicity against human HepAD38 cells to EC50 for antiviral activity against HBV infected in human HePAD38 cells; format: toxicity, cell-based; conditions: read-out: Ratio CC50/EC50
# [3] = system: Hepatitis B virus; experiment: Antiviral activity against HBV infected in human HePAD38 cells assessed as reduction of capsid associated HBV DNA; format: functional, organism-based
# [4] = system: Hepatitis B virus; experiment: Antiviral activity against HBV infected in human HePAD38 cells assessed as decay of viral capsid protein by agarose gel electrophoresis-based assay; format: functional, organism-based
# [5] = system: Hepatitis B virus; experiment: Antiviral activity against HBV infected in human HePAD38 assessed as reduction on HBsAg level at 20 uM by ELISA analysis relative to control; format: functional; parameters: scale not given: the % may be the effect or the level left
# [6] = system: Hepatitis B virus; experiment: Antiviral activity against HBV infected in human HePAD38 cells assessed as reduction in intracellular core HBV DNA level at 20 uM incubated for 6 days by qPCR analysis relative to control; format: functional; parameters: scale not given: the % may be the effect or the level left; conditions: time 6 day
# [7] = system: Hepatitis B virus; experiment: Antiviral activity against HBV infected in human HePAD38 cells assessed as decay of viral core protein by agarose gel electrophoresis-based assay; format: functional, organism-based
# [8] = Cytotoxicity against human HepAD38 cells assessed as reduction in cell viability incubated for 6 days by CCK-8 assay; format: functional; conditions: HePAD38, 144 h, time 6 day
# [9] = target: Core antigen (Hepatitis B virus) (UniProt Q03732); experiment: Modulation of capsid assembly in HBV infected in human HePAD38 cells assessed as inhibition of viral DNA replication at 5 uM incubated for 3 to 7 days by electron microscopic analysis; format: cell-based; conditions: filed as modulator, time 3-7 day
# [10] = system: Hepatitis B virus; experiment: Antiviral activity against HBV infected in human HePAD38 cells assessed as reduction in intracellular core HBV DNA level at 2 uM incubated for 6 days by qPCR analysis relative to control; format: functional; parameters: scale not given: the % may be the effect or the level left; conditions: time 6 day
# [11] = system: Hepatitis B virus; experiment: Antiviral activity against HBV infected in human HePAD38 assessed as reduction on HBsAg level at 2 uM by ELISA analysis relative to control; format: functional; parameters: scale not given: the % may be the effect or the level left
# [12] = system: Hepatitis B virus; experiment: Antiviral activity against HBV infected in human HePAD38 cells assessed as reduction in capsid formation at 2 uM measured for 6 days by agarose gel electrophoresis-based assay; format: functional, organism-based; conditions: time 6.0 day
# [13] = system: Hepatitis B virus; experiment: Antiviral activity against HBV infected in human HePAD38 assessed as reduction on HBeAg level at 2 uM by ELISA analysis relative to control; format: functional; parameters: scale not given: the % may be the effect or the level left
# [14] = system: Hepatitis B virus; experiment: Antiviral activity against HBV infected in human HePAD38 cells assessed as reduction in intracellular core HBV DNA level at 5 uM incubated for 6 days by qPCR analysis relative to control; format: functional; parameters: scale not given: the % may be the effect or the level left; conditions: time 6 day
# [15] = system: Hepatitis B virus; experiment: Antiviral activity against HBV infected in human HePAD38 assessed as reduction on HBeAg level at 5 uM by ELISA analysis relative to control; format: functional; parameters: scale not given: the % may be the effect or the level left
# [16] = system: Hepatitis B virus; experiment: Antiviral activity against HBV infected in human HePAD38 assessed as reduction on HBsAg level at 5 uM by ELISA analysis relative to control; format: functional; parameters: scale not given: the % may be the effect or the level left
# [17] = system: Hepatitis B virus; experiment: Antiviral activity against HBV infected in human HepAD38 cells assessed as effect on capsid morphology at 20 uM incubated for 3 to 7 days by transmission electron microscopy; format: functional, organism-based; conditions: time 3-7 day
# [18] = system: Hepatitis B virus; experiment: Antiviral activity against HBV infected in human HePAD38 cells assessed as reduction in intracellular core HBV DNA level at 25 nM incubated for 6 days by qPCR analysis relative to control; format: functional; parameters: scale not given: the % may be the effect or the level left; conditions: time 6 day
# [19] = system: Hepatitis B virus; experiment: Antiviral activity against wild type HBV infected in human HepG2 cells assessed as inhibition of viral replication; format: functional, organism-based
# [20] = system: Hepatitis B virus; experiment: Antiviral activity against HBV infected in human HePAD38 assessed as reduction on HBsAg level at 25 nM by ELISA analysis relative to control; format: functional; parameters: scale not given: the % may be the effect or the level left
# [21] = system: Hepatitis B virus; experiment: Antiviral activity against ETV-resistant HBV infected in human HepG2 cells assessed as inhibition of viral replication; format: functional, organism-based
# [22] = system: Hepatitis B virus; experiment: Antiviral activity against HBV infected in human HePAD38 assessed as reduction on HBeAg level at 25 nM by ELISA analysis relative to control; format: functional; parameters: scale not given: the % may be the effect or the level left
# Sequence of Core antigen (Hepatitis B virus) (Q03732 as listed by the source): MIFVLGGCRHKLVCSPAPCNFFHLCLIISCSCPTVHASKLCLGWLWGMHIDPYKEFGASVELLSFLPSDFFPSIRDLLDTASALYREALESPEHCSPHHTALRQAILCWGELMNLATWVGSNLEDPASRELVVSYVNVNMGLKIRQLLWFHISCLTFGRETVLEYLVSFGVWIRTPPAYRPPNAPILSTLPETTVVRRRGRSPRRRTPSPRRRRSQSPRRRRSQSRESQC
Structure (SMILES),Activity [1] [%],selectivity ratio [2],EC50 [3] [nM],Activity [4],Activity [5] [%],Activity [6] [%],Activity [7],CC50 [8] [µM],further results
COC(=O)c1c(S(=O)(=O)N2CCC[C@H](C(=O)Nc3ccc(F)c(C)c3)C2)c(C)n(C(F)F)c1C,37.9,179,330,inactive,92.8,9.6,inactive,59.2,
COC(=O)c1c(S(=O)(=O)N2CCC[C@H](C(=O)Nc3ccc(F)c(C)c3)C2)c(C)n(C)c1C,54.6,,,,97.3,29.8,,,
CCOC(=O)c1c(S(=O)(=O)N2CCCC(C(=O)Nc3ccc(F)c(Cl)c3)C2)c(C)n(CC)c1C (stereo not drawn),66,,,,98.2,44.2,,,
CCOC(=O)c1c(S(=O)(=O)N2CCCC(C(=O)Nc3ccc(F)cc3F)C2)c(C)n(C)c1C (stereo not drawn),54,,,,93.5,44.9,,,
CCOC(=O)c1c(S(=O)(=O)N2CCCC(C(=O)Nc3ccc(F)c(F)c3)C2)c(C)n(C)c1C (stereo not drawn),27.2,> 192,520,Active,96,11.5,Active,> 100,
COC(=O)c1c(S(=O)(=O)N2CCC[C@H](C(=O)Nc3ccc(F)c(C#N)c3)C2)c(C)n(C)c1C,61.9,,,,92.4,29.7,,,
COC(=O)C1=C(C)NC(c2ncc(F)cc2F)=N[C@H]1c1ccc(F)cc1Cl,,,50,Active,,,Active,> 20,Activity [9]: Active; Activity [10]: 4.9%; Activity [11]: 88.5%; Activity [12]: Active; Activity [13]: 31.8%
CCOC(=O)c1c(S(=O)(=O)N2CCCC(C(=O)Nc3ccc(F)cc3)C2)c(C)n(C)c1C (stereo not drawn),62.4,,,,86.6,53.4,,,
CCOC(=O)c1c(S(=O)(=O)N2CCC[C@H](C(=O)Nc3ccc(F)c(C)c3)C2)c(C)n(C2CC2)c1C,41.6,> 17,5870,inactive,91.6,7.7,inactive,> 100,
Cc1c(C#N)c(S(=O)(=O)N2CCC[C@H](C(=O)Nc3ccc(F)c(Cl)c3)C2)c(C)n1C,36,> 22.7,4410,inactive,99.8,11.1,inactive,> 100,
COC(=O)c1c(S(=O)(=O)N2CCC[C@H](C(=O)Nc3ccc(F)c(Cl)c3)C2)c(C)n(C)c1C,67.4,,,,94,39.7,,,
COC(=O)c1c(S(=O)(=O)N2CCC[C@@H](C(=O)Nc3ccc(F)c(C)c3)C2)c(C)n(C)c1C,62.2,,,,100.5,34.9,,,
COC(=O)c1c(C)[nH]c(C)c1S(=O)(=O)N1CCC[C@H](C(=O)Nc2ccc(F)c(C)c2)C1,73.2,,,,106.1,3.7,,,
CCOC(=O)c1c(S(=O)(=O)N2CCCC(C(=O)Nc3ccc(F)c(Cl)c3)C2)c(C)n(C)c1C (stereo not drawn),27.1,,,Active,94.4,11.8,Active,,
Cc1cc(NC(=O)c2cccc(S(=O)(=O)N[C@H]3CCOC3)c2)ccc1F,,> 370,270,inactive,,,inactive,> 100,Activity [14]: 5.8%; Activity [15]: 36.1%; Activity [16]: 97%; Activity [17]: inactive
COC(=O)c1c(S(=O)(=O)N2CCC[C@H](C(=O)Nc3ccc(F)c(C)c3)C2)c(C)n(CC(C)=O)c1C,49.4,,,,92.8,38.2,,,
C=C1[C@H](CO)[C@@H](O)C[C@@H]1n1cnc2c(=O)[nH]c(N)nc21 [ENTECAVIR ANHYDROUS],,> 155,3,,,,,> 0.5,Activity [18]: 3.1%; EC50 [19]: 270 nM; Activity [20]: 93.7%; EC50 [21]: 340 nM; Activity [22]: 93.4%
COC(=O)c1c(S(=O)(=O)N2CCO[C@H](C(=O)Nc3ccc(F)c(C)c3)C2)c(C)n(C)c1C,59,,,,88.2,39,,,
